From PubChem BioAssay AID248 (DTP/NCI, 2004)
Values joined by “and” are separate entries in the source; they are usually repeats but may differ in a detail not shown here. Identical values can stand only once. Toxic doses and inconclusive results are not listed. No stated cut-off is given here; in the data, active means T/C of 150% or more; inactive means T/C below 125%.

Test system: L1210 leukemia ip in BDF1 mice, survival T/C
Assay: NCI In Vivo Anticancer Drug Screen. Data for tumor model L1210 Leukemia (intraperitoneal) in B6D2F1 (BDF1) mice
Details: higher = longer survival
Method in brief: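 Value reflects the ratio of survival in compound-treated mice to survival in vehicle-treated controls, with both groups carrying the same transplanted tumor.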

[1] = endpoint: mean survival time, dose: 100.0 mg/kg/injection, schedule: Q04DX002 (ip), vehicle: saline with Tween-80
[2] = endpoint: mean survival time, dose: 200.0 mg/kg/injection, schedule: Q04DX002 (ip), vehicle: saline with Tween-80
[3] = endpoint: mean survival time, dose: 400.0 mg/kg/injection, schedule: Q04DX002 (ip), vehicle: saline with Tween-80
[4] = endpoint: mean survival time, dose: 100.0 mg/kg/injection, schedule: Q04DX003 (ip), vehicle: Klucel (hydroxypropylcellulose) (HPC)
[5] = endpoint: mean survival time, dose: 100.0 mg/kg/injection, schedule: Q04DX003 (ip), vehicle: saline with Tween-80
[6] = endpoint: mean survival time, dose: 200.0 mg/kg/injection, schedule: Q04DX003 (ip), vehicle: Klucel (hydroxypropylcellulose) (HPC)
[7] = endpoint: mean survival time, dose: 400.0 mg/kg/injection, schedule: Q04DX003 (ip), vehicle: Klucel (hydroxypropylcellulose) (HPC)
[8] = endpoint: mean survival time, dose: 100.0 mg/kg/injection, schedule: Q01DX001 (ip), vehicle: saline
[9] = endpoint: mean survival time, dose: 200.0 mg/kg/injection, schedule: Q01DX001 (ip), vehicle: saline
[10] = endpoint: mean survival time, dose: 400.0 mg/kg/injection, schedule: Q01DX001 (ip), vehicle: saline
[11] = endpoint: mean survival time, dose: 100.0 mg/kg/injection, schedule: Q01DX009 (ip), vehicle: Klucel (hydroxypropylcellulose) (HPC)
[12] = endpoint: mean survival time, dose: 200.0 mg/kg/injection, schedule: Q01DX009 (ip), vehicle: Klucel (hydroxypropylcellulose) (HPC)
[13] = endpoint: mean survival time, dose: 400.0 mg/kg/injection, schedule: Q01DX009 (ip), vehicle: Klucel (hydroxypropylcellulose) (HPC)
[14] = endpoint: mean survival time, dose: 50.0 mg/kg/injection, schedule: Q04DX003 (ip), vehicle: saline with Tween-80
[15] = endpoint: mean survival time, dose: 100.0 mg/kg/injection, schedule: Q01DX009 (ip), vehicle: saline with Tween-80
[16] = endpoint: mean survival time, dose: 200.0 mg/kg/injection, schedule: Q01DX009 (ip), vehicle: saline with Tween-80
[17] = endpoint: mean survival time, dose: 200.0 mg/kg/injection, schedule: Q04DX003 (ip), vehicle: saline with Tween-80
[18] = endpoint: mean survival time, dose: 100.0 mg/kg/injection, schedule: Q04DX003 (ip), vehicle: saline
[19] = endpoint: mean survival time, dose: 200.0 mg/kg/injection, schedule: Q04DX003 (ip), vehicle: saline
[20] = endpoint: mean survival time, dose: 400.0 mg/kg/injection, schedule: Q04DX003 (ip), vehicle: saline with Tween-80
[21] = endpoint: mean survival time, dose: 400.0 mg/kg/injection, schedule: Q01DX009 (ip), vehicle: saline with Tween-80

Measured: T/C

COC(=O)C1/C(=C/c2ccccc2)C(=O)c2ccccc21 (stereo unspecified)
inactive: [1] 87 % of control | [2] 87 % of control | [3] 94 % of control

COc1cc(C=Nc2ccc(C)c(C)c2)ccc1OC(=O)c1ccccc1
inactive: [1] 106 % of control | [2] 106 % of control | [3] 95 % of control

COc1cc(NC(=O)Nc2cc(OC)c(OC)c(OC)c2)cc(OC)c1OC
inactive: [4] 96 % of control | [5] 93 % of control | [6] 98 % of control | [7] 91 % of control

C=CC[n+]1ccccc1/C=C/c1ccc(OC)c(OC)c1
inactive: endpoint: mean survival time, dose: 3.12 mg/kg/injection, schedule: Q01DX009 (ip), vehicle: Klucel (hydroxypropylcellulose) (HPC) 106 % of control | endpoint: mean survival time, dose: 3.12 mg/kg/injection, schedule: Q04DX003 (ip), vehicle: Klucel (hydroxypropylcellulose) (HPC) 105 % of control | endpoint: mean survival time, dose: 6.25 mg/kg/injection, schedule: Q01DX009 (ip), vehicle: Klucel (hydroxypropylcellulose) (HPC) 106 % of control | endpoint: mean survival time, dose: 6.25 mg/kg/injection, schedule: Q04DX003 (ip), vehicle: Klucel (hydroxypropylcellulose) (HPC) 100 % of control | endpoint: mean survival time, dose: 12.5 mg/kg/injection, schedule: Q01DX009 (ip), vehicle: Klucel (hydroxypropylcellulose) (HPC) 98 % of control | endpoint: mean survival time, dose: 12.5 mg/kg/injection, schedule: Q04DX003 (ip), vehicle: Klucel (hydroxypropylcellulose) (HPC) 94 % of control and 100 % of control

CCCCCN(C(=N)CCCC)S(=O)(=O)c1ccccc1
inactive: [8] 89 % of control | [9] 95 % of control | [10] 106 % of control

CC(=O)CC(=O)N1CCC(C)CC1
inactive: [11] 96 % of control | [4] 103 % of control | [12] 100 % of control | [6] 101 % of control | [13] 95 % of control | [7] 101 % of control

CCOC(=O)c1cnc(SC)nc1N(c1ccccc1)c1ccccc1
inactive: [4] 90 % of control | [6] 86 % of control | [7] 95 % of control

CN(C)/N=N/c1ncn(C2CCCO2)c1C(N)=O (stereo unspecified)
inactive: endpoint: mean survival time, dose: 200.0 mg/kg/injection, schedule: Q01DX005 (ip), vehicle: saline 115 % of control

C/C(=N\NC(N)=S)C1OCCc2ccccc21 (stereo unspecified)
inactive: endpoint: mean survival time, dose: 5.0 mg/kg/injection, schedule: Q01DX001 (ip), vehicle: saline 105 % of control | endpoint: mean survival time, dose: 10.0 mg/kg/injection, schedule: Q01DX001 (ip), vehicle: saline 90 % of control | endpoint: mean survival time, dose: 20.0 mg/kg/injection, schedule: Q01DX001 (ip), vehicle: saline 98 % of control

CCc1ccc(OC/C=C(/C)CC/C=C(\C)CCC=C(C)C)cc1
inactive: [1] 110 % of control | [2] 97 % of control | [3] 87 % of control

C/C(=N\NC(N)=S)c1cccs1
inactive: endpoint: mean survival time, dose: 12.5 mg/kg/injection, schedule: Q04DX003 (ip), vehicle: saline with Tween-80 93 % of control | endpoint: mean survival time, dose: 25.0 mg/kg/injection, schedule: Q04DX003 (ip), vehicle: saline with Tween-80 103 % of control | [14] 101 % of control

c1c(N2CC2)cc(N2CC2)cc1N1CC1
inactive: endpoint: median survival time, dose: 100.0 mg/kg/injection, schedule: Q01DX009 (ip), vehicle: Klucel (hydroxypropylcellulose) (HPC) 108 % of control | endpoint: median survival time, dose: 200.0 mg/kg/injection, schedule: Q01DX009 (ip), vehicle: Klucel (hydroxypropylcellulose) (HPC) 97 % of control | endpoint: median survival time, dose: 400.0 mg/kg/injection, schedule: Q01DX009 (ip), vehicle: Klucel (hydroxypropylcellulose) (HPC) 92 % of control

Cc1ccc(Nc2ccc(Nc3ccc(CCO)cc3)c3c2C(=O)c2ccccc2C3=O)cc1
inactive: [11] 96 % of control | [12] 100 % of control | [13] 89 % of control

O=c1[nH]nc(SC2CCCCC2)c(=O)[nH]1
inactive: [8] 108 % of control | [9] 108 % of control | [10] 106 % of control

Cc1c(Cl)cccc1NC(=O)Nc1nccs1
inactive: [14] 103 % of control | [15] 101 % of control and 104 % of control | [1] 100 % of control and 103 % of control | [5] 101 % of control | [16] 100 % of control | [2] 95 % of control and 96 % of control | [17] 114 % of control | [3] 109 % of control

COc1cc(/C=C2\CCOC2=O)cc(/C=C2\CCOC2=O)c1O
inactive: [1] 89 % of control

COc1cccc(CCNC(=O)CC(=O)O)c1OC
inactive: [18] 92 % of control | [19] 103 % of control | endpoint: mean survival time, dose: 400.0 mg/kg/injection, schedule: Q04DX003 (ip), vehicle: saline 110 % of control

COC(=O)C1=C2Nc3ccccc3C23CCN2CC4(CC5CC67CCOC6CCN6CCC8(c9cccc(OC)c9N(C4)C58O)C67)C4OCCC4(C1)C23 (stereo unspecified)
inactive: [6] 88 % of control | [7] 93 % of control

O=C1C=CC(=O)c2c1ccc1ccccc21
inactive: endpoint: mean survival time, dose: 12.5 mg/kg/injection, schedule: Q04DX003 (ip), vehicle: saline 102 % of control | endpoint: mean survival time, dose: 25.0 mg/kg/injection, schedule: Q04DX003 (ip), vehicle: saline 96 % of control | endpoint: mean survival time, dose: 50.0 mg/kg/injection, schedule: Q04DX003 (ip), vehicle: saline 101 % of control

Ic1cccc(/C=N/Nc2nnc(N/N=C/c3cccc(I)c3)c3ccccc23)c1
inactive: endpoint: mean survival time, dose: 50.0 mg/kg/injection, schedule: Q01DX001 (ip), vehicle: saline 102 % of control | [8] 102 % of control | [9] 102 % of control | [10] 108 % of control

O/N=C\c1ccc(/C=N/O)cc1
inactive: endpoint: mean survival time, dose: 50.0 mg/kg/injection, schedule: Q01DX009 (ip), vehicle: saline with Tween-80 97 % of control | [15] 93 % of control | [16] 97 % of control

Cc1cc(CCCC(=O)O)c(C)s1
inactive: [5] 101 % of control | [17] 104 % of control | [20] 101 % of control

C[n+]1ccc2cc(-c3ccccc3)c3ccccc3c2c1
inactive: endpoint: mean survival time, dose: 1.56 mg/kg/injection, schedule: Q01DX009 (ip), vehicle: water 102 % of control | endpoint: mean survival time, dose: 3.12 mg/kg/injection, schedule: Q01DX009 (ip), vehicle: water 104 % of control | endpoint: mean survival time, dose: 6.25 mg/kg/injection, schedule: Q01DX009 (ip), vehicle: water 104 % of control | endpoint: mean survival time, dose: 6.25 mg/kg/injection, schedule: Q04DX003 (ip), vehicle: water 98 % of control | endpoint: mean survival time, dose: 12.5 mg/kg/injection, schedule: Q01DX009 (ip), vehicle: water 95 % of control | endpoint: mean survival time, dose: 12.5 mg/kg/injection, schedule: Q04DX003 (ip), vehicle: water 103 % of control | endpoint: mean survival time, dose: 25.0 mg/kg/injection, schedule: Q04DX003 (ip), vehicle: water 88 % of control

Cc1ccc(S(=O)(=O)OCC2COC(C(Cl)(Cl)Cl)O2)cc1 (stereo unspecified)
inactive: [15] 94 % of control | [5] 106 % of control | [16] 92 % of control | [17] 113 % of control | [21] 94 % of control | [20] 110 % of control

CC(CC(C)(C)C)OS(=O)(=O)c1ccc(Br)cc1 (stereo unspecified)
inactive: [5] 98 % of control | [17] 101 % of control | [20] 92 % of control

CC1=CCS(=O)(=O)C1
inactive: [18] 103 % of control | [19] 101 % of control

Cc1ccc(N=Nc2ccc(C)cc2NC(=O)C2CC2)cc1
inactive: [11] 97 % of control | [12] 97 % of control | [13] 97 % of control

CCCCCCCC/C=C\CCCCCCCC(=O)OCCCCCCCCCCC
inactive: endpoint: mean survival time, dose: 100.0 mg/kg/injection, schedule: Q01DX009 (ip), vehicle: other 93 % of control | endpoint: mean survival time, dose: 200.0 mg/kg/injection, schedule: Q01DX009 (ip), vehicle: other 94 % of control | endpoint: mean survival time, dose: 400.0 mg/kg/injection, schedule: Q01DX009 (ip), vehicle: other 100 % of control

C=C(Br)CNC(=O)NCC(=C)Br
inactive: [15] 105 % of control | [16] 100 % of control | [21] 105 % of control

CCOC(=O)c1[nH]c2ccsc2c1C[N+]1(C)CCCCC1
inactive: endpoint: mean survival time, dose: 12.5 mg/kg/injection, schedule: Q01DX001 (ip), vehicle: saline with Tween-80 105 % of control | endpoint: mean survival time, dose: 25.0 mg/kg/injection, schedule: Q01DX001 (ip), vehicle: saline with Tween-80 103 % of control

NC(=O)C(NC(=O)c1ccc([N+](=O)[O-])cc1)Sc1ccccc1 (stereo unspecified)
inactive: endpoint: mean survival time, dose: 100.0 mg/kg/injection, schedule: Q04DX002 (ip), vehicle: Klucel (hydroxypropylcellulose) (HPC) 109 % of control | endpoint: mean survival time, dose: 200.0 mg/kg/injection, schedule: Q04DX002 (ip), vehicle: Klucel (hydroxypropylcellulose) (HPC) 106 % of control | endpoint: mean survival time, dose: 400.0 mg/kg/injection, schedule: Q04DX002 (ip), vehicle: Klucel (hydroxypropylcellulose) (HPC) 101 % of control
